# Source: patent publication US5854029A, “Method for preparing antihypertensive agent” (Calpis Co., Ltd., priority 1996, dated 1998)
# Peptide text beside a SMILES is read from it.
# Assays:
# [1] = tested on: WKY rats showing normal blood pressure; experiment: One-month continuous oral administration to WKY rats (safety); format: in vivo, rat; conditions: 10 mg/kg body weight/day continuously for one month
# Source text: Foods fermented with Lactobacillus bacteria have been eaten by human beings for a long time, and it is therefore assumed that Tyr-Pro contained in the antihypertensive agent of the present invention has no problem in safety.
# [2] = tested on: spontaneously hypertensive rats (SHR); conditions: J. Dairy Sci. 78:1253-1257; cited from earlier work
# [3] = target: Angiotensin converting enzyme (ACE) (Homo sapiens, UniProt P12821); conditions: J. Dairy Sci. 78:777-783; cited from earlier work
# Angiotensin converting enzyme (ACE), sequence (P12821 30-1306, species assumed): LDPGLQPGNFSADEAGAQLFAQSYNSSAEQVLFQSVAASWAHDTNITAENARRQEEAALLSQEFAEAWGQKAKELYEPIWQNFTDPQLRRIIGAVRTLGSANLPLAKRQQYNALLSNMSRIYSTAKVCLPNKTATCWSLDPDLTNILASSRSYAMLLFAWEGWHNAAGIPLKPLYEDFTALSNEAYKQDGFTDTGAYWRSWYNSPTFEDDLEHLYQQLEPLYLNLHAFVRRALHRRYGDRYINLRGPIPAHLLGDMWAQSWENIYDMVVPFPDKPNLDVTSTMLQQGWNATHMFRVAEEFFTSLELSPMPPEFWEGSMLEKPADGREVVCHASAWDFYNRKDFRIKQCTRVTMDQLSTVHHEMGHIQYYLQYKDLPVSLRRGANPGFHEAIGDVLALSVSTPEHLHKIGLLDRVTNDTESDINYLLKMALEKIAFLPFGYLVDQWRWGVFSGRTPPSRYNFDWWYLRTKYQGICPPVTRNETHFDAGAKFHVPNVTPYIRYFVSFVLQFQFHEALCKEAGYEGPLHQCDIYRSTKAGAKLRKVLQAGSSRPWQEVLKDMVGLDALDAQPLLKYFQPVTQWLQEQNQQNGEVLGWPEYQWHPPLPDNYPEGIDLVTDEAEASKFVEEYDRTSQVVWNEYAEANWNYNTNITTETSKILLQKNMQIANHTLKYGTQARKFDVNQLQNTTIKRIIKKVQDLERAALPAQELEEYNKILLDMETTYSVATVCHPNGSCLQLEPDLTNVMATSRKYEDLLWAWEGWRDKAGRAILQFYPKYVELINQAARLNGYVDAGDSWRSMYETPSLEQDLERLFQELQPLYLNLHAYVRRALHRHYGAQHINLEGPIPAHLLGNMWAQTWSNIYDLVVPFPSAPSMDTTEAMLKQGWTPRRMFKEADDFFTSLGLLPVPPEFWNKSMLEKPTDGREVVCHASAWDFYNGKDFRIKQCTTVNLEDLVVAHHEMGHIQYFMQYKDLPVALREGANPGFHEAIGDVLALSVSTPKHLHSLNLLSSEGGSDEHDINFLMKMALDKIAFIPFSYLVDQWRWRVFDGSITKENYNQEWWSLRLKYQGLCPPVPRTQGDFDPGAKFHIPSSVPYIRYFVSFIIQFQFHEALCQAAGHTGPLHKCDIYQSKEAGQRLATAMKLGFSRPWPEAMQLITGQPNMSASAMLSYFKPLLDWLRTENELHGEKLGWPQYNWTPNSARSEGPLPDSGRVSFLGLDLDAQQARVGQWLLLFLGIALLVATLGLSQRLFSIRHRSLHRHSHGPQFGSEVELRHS
Compound,"Abnormality in behavior, appearance, blood pressure and autopsy [1]",Antihypertensive effect in SHR (result in words) [2],ACE inhibiting activity (result in words) [3]
N[C@@H](Cc1ccc(O)cc1)C(=O)N1CCC[C@H]1C(=O)O [Tyr-Pro] (H-Tyr-Pro-OH),no abnormality was found,–,–
Ile-Pro-Pro,–,strong antihypertensive effect,strong ACE inhibiting activity
Val-Pro-Pro,–,strong antihypertensive effect,strong ACE inhibiting activity
